# Results as given in patent US7175829B2, “Contrast-enhanced diagnostic imaging method for monitoring interventional therapies” (Epix Pharmaceuticals, Inc., priority 1997, dated 2007).
# What was measured:
# Assay type in all cases: physicochemical
# [1] = target: T1, human serum albumin (HSA) (Homo sapiens, UniProt P02768); test: Relaxivity R1 at 20 MHz during thermal denaturation of 4.5% HSA solutions; conditions: 0.3 mM Gd-DTPA, 0.1 mM MS-325; for R1: 20 MHz, 4.5% HSA solution
# Procedure: (§1) In these examples, the longitudinal relaxivities (R1, mM^−1 sec^−1) were monitored and obtained at 20 MHz by determining the relaxation rate (1/T1) of water protons in phosphate buffered saline (PBS, 150 mM NaCl, 10 mM phosphate, pH=7.4), in PBS solutions containing 4.5 wt % HSA, or in gels containing 4.5 wt % HSA and 1% Agar. The dependence of temperature on relaxivity (R1) was observed by varying the temperature of the samples with a circulating water bath and monitoring sample temperature with a thermocouple.
# (§2) The following three samples were prepared in solutions of 4.5% HSA: (1) a control sample without a contrast agent; (2) a comparative sample with Gd-DTPA; and (3) a sample with MS-325. The samples with Gd-DTPA and MS-325 were prepared by adding an aqueous formulation (pH=7) comprising either Gd-DTPA or MS-325 to the 4.5% HSA solution.
# The three samples were then used to monitor the thermal denaturation of the 4.5% HSA solutions. […] Each sample was then removed from the NMR and heated at 85° C. for 15 minutes to induce thermal denaturation of the HSA. Subsequently, the sample was returned to the NMR and T1 data was collected at this higher temperature.
# [2] = target: T1, human serum albumin (HSA); test: T1-weighted MRI at 1.0 Tesla of agar phantoms containing 4.5% HSA during thermal denaturation; conditions: for % Loss ROI: 1% agar, 4.5% HSA
# Procedure: The following samples were prepared in 1% agar gels containing 4.5% HSA: (1) a control sample without a contrast agent; (2) a comparative sample with Gd-DTPA; and (3) a sample with MS-325. The contrast agents were added in an amount sufficient such that the concentration of Gd-DTPA and MS-325 were 0.3 mM Gd-DTPA and 0.1 mM MS-325, respectively. Such agar gels containing 4.5% HSA are referred to as “phantoms”.
# Initial T1-weighted MRI scans (FISP-3D, TR=15, TE=4, alpha=30) at 1.0 Tesla of the agar phantoms were then obtained at a temperature of about 25° C.
# The phantoms were then heated in a circulating water bath with additional T1-weighted MRI scans obtained over time.
# [3] = target: T1, human serum albumin (HSA); test: Relaxivity R1 at 20 MHz during ethanol denaturation of 4.5% HSA solutions; conditions: for R1 0.08 mM MS-325: 4.5% HSA, 37° C.
# Procedure: as §1, §2
# Absolute ethanol was then titrated to each of the samples. T1 data (and thus R1 data (=1/T1)) was collected at 20 MHz and 37° C. after each addition of ethanol.
# T1 sequence (P02768 25-609): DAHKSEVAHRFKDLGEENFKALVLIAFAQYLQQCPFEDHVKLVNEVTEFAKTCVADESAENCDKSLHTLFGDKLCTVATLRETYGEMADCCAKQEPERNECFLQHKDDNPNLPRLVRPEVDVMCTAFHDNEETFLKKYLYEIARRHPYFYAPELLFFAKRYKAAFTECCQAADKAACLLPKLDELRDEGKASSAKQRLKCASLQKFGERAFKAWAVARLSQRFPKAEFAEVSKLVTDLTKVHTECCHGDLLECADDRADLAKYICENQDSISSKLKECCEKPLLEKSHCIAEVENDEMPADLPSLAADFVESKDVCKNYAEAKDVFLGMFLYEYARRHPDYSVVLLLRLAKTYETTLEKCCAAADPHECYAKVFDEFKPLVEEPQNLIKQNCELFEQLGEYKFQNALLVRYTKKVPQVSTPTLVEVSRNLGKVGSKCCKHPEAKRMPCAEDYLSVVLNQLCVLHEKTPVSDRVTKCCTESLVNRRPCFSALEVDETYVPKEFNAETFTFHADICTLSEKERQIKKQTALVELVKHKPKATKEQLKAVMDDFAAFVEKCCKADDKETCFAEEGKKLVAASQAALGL
smiles,measurement,setting,value
O=C(O)CN(CCN(CC(=O)O)CC(COP(=O)(O)OC1CCC(c2ccccc2)(c2ccccc2)CC1)N(CC(=O)O)CC(=O)O)CC(=O)O (centres unmarked) [MS-325],R1,[1]; 7.3 °C,31.2 mM⁻¹ s⁻¹
same,R1,[1]; 11.7 °C,33.4 mM⁻¹ s⁻¹
same,R1,[1]; 16.2 °C,36.0 mM⁻¹ s⁻¹
same,R1,[1]; 20.6 °C,38.6 mM⁻¹ s⁻¹
same,R1,[1]; 25.0 °C,40.6 mM⁻¹ s⁻¹
same,R1,[1]; 29.5 °C,42.0 mM⁻¹ s⁻¹
same,R1,[1]; 33.9 °C,42.8 mM⁻¹ s⁻¹
same,R1,[1]; 38.4 °C,42.4 mM⁻¹ s⁻¹
same,R1,[1]; 42.8 °C,42.3 mM⁻¹ s⁻¹
same,R1,[1]; 47.3 °C,41.3 mM⁻¹ s⁻¹
same,R1,[1]; 51.7 °C,39.5 mM⁻¹ s⁻¹
same,R1,[1]; 56.2 °C,37.5 mM⁻¹ s⁻¹
same,R1,[1]; 60.6 °C,33.3 mM⁻¹ s⁻¹
same,R1,"[1]; 85.0 °C, after heating at 85° C. for 15 minutes (HSA denatured)",10.8 mM⁻¹ s⁻¹
same,net loss in R1 after denatured samples cooled to physiological temperature,[1]; denatured samples cooled to 37° C.,25 mM^−1 sec^−1
same,loss in observed R1 during denaturation of the HSA,[1]; from immediately before denaturation (56.2° C.) to immediately after denaturation (85° C.),26.7 mM⁻¹ s⁻¹
same,% Loss ROI,"[2]; 0 min, 25.3 °C, 0.3 mM Gd-DTPA, 0.1 mM MS-325, 1.0 Tesla",0.0000%
same,% Loss ROI,"[2]; 10 min, 29.6 °C, 0.3 mM Gd-DTPA, 0.1 mM MS-325, 1.0 Tesla",−4.4755%
same,% Loss ROI,"[2]; 20 min, 38.3 °C, 0.3 mM Gd-DTPA, 0.1 mM MS-325, 1.0 Tesla",−6.4144%
same,% Loss ROI,"[2]; 30 min, 45.0 °C, 0.3 mM Gd-DTPA, 0.1 mM MS-325, 1.0 Tesla",−11.241%
same,% Loss ROI,"[2]; 40 min, 53.0 °C, 0.3 mM Gd-DTPA, 0.1 mM MS-325, 1.0 Tesla",−26.153%
same,% Loss ROI,"[2]; 50 min, 64.7 °C, 0.3 mM Gd-DTPA, 0.1 mM MS-325, 1.0 Tesla",−49.262%
same,% Loss ROI,"[2]; 60 min, 72.8 °C, 0.3 mM Gd-DTPA, 0.1 mM MS-325, 1.0 Tesla",−69.499%
same,% Loss ROI,"[2]; 70 min, 87.1 °C, 0.3 mM Gd-DTPA, 0.1 mM MS-325, 1.0 Tesla",−76.469%
same,% Loss ROI,"[2]; 120 min, 35.5 °C (cooled after denaturation), 0.3 mM Gd-DTPA, 0.1 mM MS-325, 1.0 Tesla",−31.869%
same,brightness of phantoms in initial T1-weighted MRI scans,"[2]; about 25° C., 1.0 Tesla, versus phantoms with Gd-DTPA or 4.5% HSA alone",brighter
same,loss in signal intensity after denaturation and cooling,"[2]; denatured phantoms cooled to 37° C., 0.3 mM Gd-DTPA, 0.1 mM MS-325",32%
same,loss of signal intensity on thermal denaturation,"[2]; phantoms heated above 50–60° C., 0.3 mM Gd-DTPA, 0.1 mM MS-325",76%
same,decrease/change in observed relaxivity during ethanol ablation,"[3]; 4.5% HSA solutions, 0.31 mM Gd-DTPA, 0.08 mM MS-325, 37° C.",33 mM⁻¹ s⁻¹
same,R1 0.08 mM MS-325,[3]; ethanol 0.0 %,42.216 mM⁻¹ s⁻¹
same,R1 0.08 mM MS-325,[3]; ethanol 0.9 %,40.848 mM⁻¹ s⁻¹
same,R1 0.08 mM MS-325,[3]; ethanol 1.9 %,39.541 mM⁻¹ s⁻¹
same,R1 0.08 mM MS-325,[3]; ethanol 2.8 %,38.423 mM⁻¹ s⁻¹
same,R1 0.08 mM MS-325,[3]; ethanol 3.7 %,37.064 mM⁻¹ s⁻¹
same,R1 0.08 mM MS-325,[3]; ethanol 4.5 %,36.375 mM⁻¹ s⁻¹
same,R1 0.08 mM MS-325,[3]; ethanol 5.4 %,35.234 mM⁻¹ s⁻¹
same,R1 0.08 mM MS-325,[3]; ethanol 6.2 %,34.576 mM⁻¹ s⁻¹
same,R1 0.08 mM MS-325,[3]; ethanol 7.1 %,33.895 mM⁻¹ s⁻¹
same,R1 0.08 mM MS-325,[3]; ethanol 7.9 %,33.099 mM⁻¹ s⁻¹
same,R1 0.08 mM MS-325,[3]; ethanol 8.7 %,32.224 mM⁻¹ s⁻¹
same,R1 0.08 mM MS-325,[3]; ethanol 10.2 %,31.689 mM⁻¹ s⁻¹
same,R1 0.08 mM MS-325,[3]; ethanol 11.7 %,30.403 mM⁻¹ s⁻¹
same,R1 0.08 mM MS-325,[3]; ethanol 16.4 %,26.939 mM⁻¹ s⁻¹
same,R1 0.08 mM MS-325,[3]; ethanol 22.8 %,21.456 mM⁻¹ s⁻¹
same,R1 0.08 mM MS-325,[3]; ethanol 28.3 %,17.428 mM⁻¹ s⁻¹
same,R1 0.08 mM MS-325,[3]; ethanol 33.1 %,14.082 mM⁻¹ s⁻¹
same,R1 0.08 mM MS-325,[3]; ethanol 37.3 %,11.187 mM⁻¹ s⁻¹
same,R1 0.08 mM MS-325,[3]; ethanol 41.0 %,9.6943 mM⁻¹ s⁻¹
same,R1 0.08 mM MS-325,[3]; ethanol 44.2 %,8.9506 mM⁻¹ s⁻¹
same,R1 0.08 mM MS-325,[3]; ethanol 47.2 %,8.7970 mM⁻¹ s⁻¹
